In experiment [1] the target is human recombinant 5-HT2A receptor (Homo sapiens (Human), UniProt P28223). The experiment in a line: 5-HT2A receptor binding inhibition test ([3H]-Ketanserin). The note with it: Jump-In HEK cell membrane, 25° C. 1.5 hours. As for the experimental part: Test Example 1: 5-HT2A Receptor Binding Inhibition Test
(§1) (Each Experimental Condition)
Cell membrane: 15 μg of Jump-In HEK cell membrane (expressing human recombinant 5-HT2A receptor) per well
(§2) Assay buffer: Tris-HCl 50 mmol/L (pH 7.4) containing NaCl 120 mmol/L, MgCl2·6H2O 1 mmol/L, KCl 5 mmol/L, 0.1% BSA and CaCl2 2 mmol/L
Radioactive ligand: [^3H]-Ketanserin with a final concentration of around Kd value calculated by the following method
Non-specific ligand: Serotonin HCl with a final concentration of 500 μmol/L
(§3) The Kd value is calculated when the lot of cell membrane is changed. In advance, 0.5 μL of a 1 mmol/L compound for non-specific binding calculation dissolved in DMSO or DMSO is dispensed into a microplate, and the cell membrane is diluted with an Assay buffer. The radioactive ligand solution is serially diluted and the count is confirmed with a liquid scintillator. Assay buffer containing diluted cell membrane is dispensed into a microplate at 50 μL/well. Then, the radioactive ligand solution is dispensed into a microplate at 50 μL/well, and the plate is sealed. It is allowed to stand at room temperature (25° C.) for 1.5 hours. During this period, 50 mmol/L Tris-HCl (pH 7.4) is dispensed into a GF/B UniFilter plate at 50 μL/well and allowed to stand at 4° C. for 1 hour or longer. After that, filtration is performed with Cell harvester (PerkinElmer). The radioactive ligand solution is dispensed into an empty well of the GF/B UniFilter plate at 10 μL/well. After the GF/B UniFilter plate is dried at room temperature, MicroScinti 20 is dispensed into the GF/B UniFilter plate at 50 μL/well to seal the plate. The GF/B UniFilter plate is allowed to stand overnight at room temperature. The radioactivity of [^3H]-Ketanserin bound to the 5-HT2A receptor is measured using Microbeta2 (PerkinElmer) at a measurement time of 1 min/well. The Saturation curve is drawn from the measured value, and the Kd value is calculated from the slope of the Scatchard Plot.
(§4) (Binding Test of the Compound According to the Present Invention)
In advance, 0.5 μL of the compound solution dissolved in DMSO is dispensed into a microplate, and the cell membrane and the hot ligand are diluted with Assay buffer, respectively. Then, the Assay buffer containing the diluted cell membrane is dispensed into a microplate at 50 μL/well. Then, the radioactive ligand solution is dispensed into a microplate at 50 μL/well, and the plate is sealed. Then, it is allowed to stand at room temperature (25° C.) for 1.5 hours. During this period, 50 mmol/L Tris-HCl (pH 7.4) is dispensed into a GF/B UniFilter plate at 50 μL/well and allowed to stand at 4° C. for 1 hour or longer. After that, filtration is performed with Cell harvester (PerkinElmer). After the GF/B UniFilter plate is dried at room temperature, MicroScinti 20 is dispensed into the GF/B UniFilter plate at 50 μL/well to seal the plate. The GF/B UniFilter plate is allowed to stand overnight at room temperature. The radioactivity of [^3H]-Ketanserin bound to the 5-HT2A receptor is measured using Microbeta2 (PerkinElmer) at a measurement time of 1 min/well. The non-specific binding is calculated from the radioactivity of [^3H]-Ketanserin in the presence of 500 μmol/L Serotonin HCl which is the unlabeled ligand, and the total binding is calculated from the radioactivity of [^3H]-Ketanserin in the absence of the compound according to the present invention (Vehicle). Finally, the Ki value is calculated from the dose-response curve.
(§5) (The binding activity of the compound according to the present invention is calculated from the following binding inhibition rate (%).)
(§6) [formula] • a; mean cpm of non-specific binding • b; average cpm of total binding • c; cpm in the presence of the test compound

Experiment [2] deals with human recombinant 5-HT2C receptor (Homo sapiens (Human), UniProt P28335). Briefly: 5-HT2C receptor binding inhibition test ([3H]-Mesulergine). The note with it: Jump-In HEK cell membrane, 37° C. 2 hours. The procedure: Test Example 2: 5-HT2C Receptor Binding Inhibition Test
Sequence of human recombinant 5-HT2C receptor (P28335 33-458): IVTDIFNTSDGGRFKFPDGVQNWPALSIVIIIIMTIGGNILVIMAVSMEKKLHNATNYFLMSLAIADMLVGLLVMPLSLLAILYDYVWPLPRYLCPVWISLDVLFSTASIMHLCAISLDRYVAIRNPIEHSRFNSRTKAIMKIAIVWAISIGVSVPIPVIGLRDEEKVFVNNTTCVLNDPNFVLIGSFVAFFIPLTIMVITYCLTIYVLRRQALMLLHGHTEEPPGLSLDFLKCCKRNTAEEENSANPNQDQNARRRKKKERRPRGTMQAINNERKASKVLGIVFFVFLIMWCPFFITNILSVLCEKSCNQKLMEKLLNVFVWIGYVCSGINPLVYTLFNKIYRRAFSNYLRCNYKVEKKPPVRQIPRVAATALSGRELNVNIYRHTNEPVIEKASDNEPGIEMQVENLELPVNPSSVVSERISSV
as §1
Cell membrane: 0.5 μg of Jump-In HEK cell membrane (expressing human recombinant 5-HT2C receptor) per well
as §2
Radioactive ligand: [^3H]-Mesulergine with a final concentration of around Kd value calculated by the following method
Non-specific ligand: Serotonin HCl with a final concentration of […]
as §3, with “37° C.” for “room temperature (25° C.)”, “2” for “1.5”, “[^3H]-Mesulergine” for “[^3H]-Ketanserin”, “5-HT2C” for “5-HT2A”
as §4
In advance, 0.5 μL of the compound solution dissolved in DMSO is dispensed into a microplate, and the cell membrane and the hot ligand are diluted with Assay buffer, respectively. Then, the Assay buffer containing the diluted cell membrane is dispensed into a microplate at 50 μL/well. Then, the radioactive ligand solution is dispensed into a microplate at 50 μL/well, and the plate is sealed. Then, it is allowed to stand at 37° C. for 2 hours. During this period, 50 mmol/L Tris-HCl (pH 7.4) is dispensed into a GF/B UniFilter plate at 50 μL/well and allowed to stand at 4° C. for 1 hour or longer. After that, filtration is performed with Cell harvester (PerkinElmer). After the GF/B UniFilter plate is dried at room temperature, MicroScinti 20 is dispensed into the GF/B UniFilter plate at 50 μL/well, and the plate is sealed. The GF/B UniFilter plate is allowed to stand overnight at room temperature. The radioactivity of [^3H]-Mesulergine bound to the 5-HT2C receptor is measured using Microbeta2 (PerkinElmer) at a measurement time of 1 min/well. The non-specific binding is calculated from the radioactivity of […] in the presence of 500 μmol/L Serotonin HCl which is the unlabeled ligand, and the total binding is calculated from the radioactivity of [^3H]-Mesulergine in the absence of the compound according to the present invention (Vehicle). Finally, the Ki value is calculated from the dose-response curve.
as §5, §6

Setting [3] is: read-out: human serotonin 5-HT2A receptor binding activity Ki.
Setting [4] is: read-out: human serotonin 5-HT2C receptor binding activity Ki.

Where two headings read alike, the source gives them in different places.

One may read the Ki as the dissociation constant of the complex between target and ligand, obtained from inhibition or displacement.

Sequence of human recombinant 5-HT2A receptor (P28223 whole entry): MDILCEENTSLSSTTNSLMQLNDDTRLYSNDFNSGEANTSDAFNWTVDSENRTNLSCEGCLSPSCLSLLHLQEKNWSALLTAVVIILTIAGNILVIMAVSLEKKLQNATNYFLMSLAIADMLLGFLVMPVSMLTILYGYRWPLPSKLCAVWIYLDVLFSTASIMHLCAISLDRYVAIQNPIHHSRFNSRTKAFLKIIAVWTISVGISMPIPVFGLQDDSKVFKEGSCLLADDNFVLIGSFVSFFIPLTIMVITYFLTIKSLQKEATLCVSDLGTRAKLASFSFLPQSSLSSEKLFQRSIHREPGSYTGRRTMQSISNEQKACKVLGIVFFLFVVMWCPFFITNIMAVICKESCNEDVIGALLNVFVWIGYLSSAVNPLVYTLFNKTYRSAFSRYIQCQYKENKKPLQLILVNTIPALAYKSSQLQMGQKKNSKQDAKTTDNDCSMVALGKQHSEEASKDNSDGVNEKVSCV

`CCCOc1ccc(CC2=NOC3(CCN(C)CC34CC4)N2Cc2cc(C)n(C)n2)cc1` (racemic) [Compound I-029]: the Ki in experiment [1] (read-out: h-5-HT2A Ki) and in experiment [2] (read-out: h-5-HT2C Ki) was less than 10 nM each time.

With `COc1ccc(CC2=NOC3(CCN(C)CC34CC4)N2Cc2cc(C)n(C)n2)cc1` (racemic) [Compound I-034], the Ki was less than 10 nM in experiment [1] (read-out: h-5-HT2A Ki) and 10 to 100 nM in experiment [2] (read-out: h-5-HT2C Ki).

For the compound `Cc1cc(CN2C(Cc3ccc(OC(F)F)cc3)=NOC23CCN(C)CC32CC2)nn1C` (racemic) [Compound I-035], the Ki in experiment [1] (read-out: h-5-HT2A Ki) and in experiment [2] (read-out: h-5-HT2C Ki) was less than 10 nM each time.

Consider `CCCOc1ccc(CC2=NOC3(CCNCC34CC4)N2Cc2ccn(C)n2)cc1` (racemic) [Compound I-037], for which the Ki in experiment [1] (read-out: h-5-HT2A Ki) and in experiment [2] (read-out: h-5-HT2C Ki) was less than 10 nM in each case.

Consider `Cn1ccc(CN2C(Cc3ccc(OC4CC4)cc3)=NOC23CCNCC32CC2)n1` (racemic) [Compound I-038], for which the Ki is 10 to 100 nM in experiment [1] (read-out: h-5-HT2A Ki) and less than 10 nM in experiment [2] (read-out: h-5-HT2C Ki).

Take `CCCOc1ccc(CNC2=NOC3(CCN(C)CC34CC4)N2Cc2ccn(C)n2)cc1` (racemic) [Compound I-040]: the Ki in experiment [1] (read-out: h-5-HT2A Ki) and in experiment [2] (read-out: h-5-HT2C Ki) was 100 to 500 nM throughout.

As for `CN1CCC2(ON=C(Cc3ccc(OC4CC4)cc3)N2Cc2ccn(C)n2)C2(CC2)C1` (racemic) [Compound I-041], the Ki in experiment [1] (read-out: h-5-HT2A Ki) and in experiment [2] (read-out: h-5-HT2C Ki) was less than 10 nM in each case.

Turning to `CC(C)COc1ccc(CN(Cc2ccc(F)cn2)C2=NC(=O)C3(CCN(C)CC34CC4)N2)cc1` (racemic) [Compound I-042], the Ki in experiment [1] (read-out: h-5-HT2A Ki) and in experiment [2] (read-out: h-5-HT2C Ki) was 10 to 100 nM throughout.

For `CC(C)COc1ccc(CN(Cc2ccn(C)n2)C2=NC(=O)C3(CCN(C)CC34CC4)N2)cc1` (racemic) [Compound I-043], the inhibitory constant (Ki) in experiment [1] (read-out: h-5-HT2A Ki) and in experiment [2] (read-out: h-5-HT2C Ki) was 10 to 100 nM throughout.

Turning to `Cc1nc(CN(Cc2ccc(OCC(C)C)cc2)C2=NO[C@@]3(CCNC[C@H]3F)N2)co1` (racemic) [Compound I-085], the Ki in experiment [1] (read-out: h-5-HT2A Ki) and in experiment [2] (read-out: h-5-HT2C Ki) was less than 10 nM each time.

As to `CCCOc1ccc(CC2=NOC3(CCN(C)CC34CC4)N2Cc2ccn(C)n2)cc1` (single isomer, unassigned) [Compound I-044], the Ki in experiment [1] (read-out: h-5-HT2A Ki) and in experiment [2] (read-out: h-5-HT2C Ki) was less than 10 nM in each case.

For `CCCOc1ccc(CC2=NOC3(CCN(C)CC34CC4)N2Cc2ccn(C)n2)cc1` (single isomer, unassigned) [Compound I-045], the Ki in experiment [1] (read-out: h-5-HT2A Ki) is 10 to 100 nM; in experiment [2] (read-out: h-5-HT2C Ki) it was 100 to 500 nM.

Take `CC(C)COc1ccc(CN(C2=NOC3(CCN(C)CC3)N2)C(C)c2ccc(F)cc2)cc1` (single isomer, unassigned) [Compound I-074]: the inhibition constant Ki in experiment [1] (read-out: h-5-HT2A Ki) and in experiment [2] (read-out: h-5-HT2C Ki) was 100 to 500 nM throughout.

As to `CC(C)COc1ccc(CC2=NOC3(CCN(C)CC3)N2Cc2ccc(F)cc2)cc1` [Compound I-001], the Ki in experiment [1] (setting [3]) is 4.82 nM; in experiment [2] (setting [4]), 16.7 nM.

On to `CC(C)COc1ccc(C[C@H]2C(=O)NC3(CCN(C)CC3)N2Cc2ccc(F)cc2)cc1` [Compound I-002], for which the Ki was 11.1 nM in experiment [1] (setting [3]) and 27.1 nM in experiment [2] (setting [4]).

Regarding `CC(C)COc1ccc(CC2=NOC3(CCNCC3)N2Cc2ccc(F)cc2O)cc1` [Compound I-003], the figures for the Ki in experiment [1] (setting [3]) and in experiment [2] (setting [4]) were 19.8 nM and 4.11 nM, respectively.

As for `CC(C)COc1ccc(CC2=NOC3(CCN(C)CC3)N2Cc2ccc(F)cc2O)cc1` [Compound I-004], the Ki in experiment [1] (read-out: h-5-HT2A Ki) was less than 10 nM; in experiment [2] (read-out: h-5-HT2C Ki), 10 to 100 nM.

In the case of `CC(C)COc1ccc(CN=C2NC(=O)CC3(CCN(C)CC3)N2Cc2ccc(F)cc2)cc1` [Compound I-005], the values for the Ki in experiment [1] (setting [3]) and in experiment [2] (setting [4]) were 85.3 nM and 219 nM, respectively.

`COc1ccc(CNC2=NOC3(CCN(C)CC3)N2Cc2ccc(F)cc2)cc1` [Compound I-006]: the Ki in experiment [1] (read-out: h-5-HT2A Ki) is 100 to 500 nM.

For the compound `CN1CCC2(CC1)NC(N(CC(=O)Nc1ccc(Cl)cc1)Cc1ccn(C)n1)=NO2` [Compound I-056], in experiment [1] (read-out: h-5-HT2A Ki), the inhibition constant (Ki) was 100 to 500 nM.

As for `Cc1ccc(CN(Cc2ccc(OCC(C)C)cc2)C2=NC(=O)C3(CCN(C)CC3)N2)cn1` [Compound I-059], the Ki in experiment [1] (read-out: h-5-HT2A Ki) lay in the range of 10 to 100 nM.

Regarding `CC(C)COc1ccc(CN(Cc2ccc(F)cc2)C2=NOC3(CCN(C)CC3)N2)cc1` [Compound I-060], the Ki in experiment [2] (read-out: h-5-HT2C Ki) is 10 to 100 nM.

For the origin of these results see patent publication US20250026765A1, “SPIROHETEROCYCLE DERIVATIVE HAVING SEROTONIN RECEPTOR BINDING ACTIVITY” (Shionogi & Co., Ltd., priority 2021, published 2025).
